pIC50: −log10 of the molar value.
What follows are compounds tested against human full length recombinant Mps-1 kinase (Homo sapiens (Human), UniProt P33981) (assay: Mps-1 Kinase Assay (TR-FRET)). Settings: 10 μM ATP, 1 μM biotinylated peptide substrate, 60 min at 22° C., read-out: Mps-1 Inhibition, IC50 in M.
Assay type: biochemical
Procedure, shortened: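 TR-FRET signal between a Europium anti-phospho-Ser/Thr antibody and streptavidin-XLent reported phosphorylation of a biotinylated peptide by GST-tagged full-length Mps-1. Enzyme was near 1 nM final, chosen per lot for linearity.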

Sequence of human full length recombinant Mps-1 kinase (P33981 whole entry): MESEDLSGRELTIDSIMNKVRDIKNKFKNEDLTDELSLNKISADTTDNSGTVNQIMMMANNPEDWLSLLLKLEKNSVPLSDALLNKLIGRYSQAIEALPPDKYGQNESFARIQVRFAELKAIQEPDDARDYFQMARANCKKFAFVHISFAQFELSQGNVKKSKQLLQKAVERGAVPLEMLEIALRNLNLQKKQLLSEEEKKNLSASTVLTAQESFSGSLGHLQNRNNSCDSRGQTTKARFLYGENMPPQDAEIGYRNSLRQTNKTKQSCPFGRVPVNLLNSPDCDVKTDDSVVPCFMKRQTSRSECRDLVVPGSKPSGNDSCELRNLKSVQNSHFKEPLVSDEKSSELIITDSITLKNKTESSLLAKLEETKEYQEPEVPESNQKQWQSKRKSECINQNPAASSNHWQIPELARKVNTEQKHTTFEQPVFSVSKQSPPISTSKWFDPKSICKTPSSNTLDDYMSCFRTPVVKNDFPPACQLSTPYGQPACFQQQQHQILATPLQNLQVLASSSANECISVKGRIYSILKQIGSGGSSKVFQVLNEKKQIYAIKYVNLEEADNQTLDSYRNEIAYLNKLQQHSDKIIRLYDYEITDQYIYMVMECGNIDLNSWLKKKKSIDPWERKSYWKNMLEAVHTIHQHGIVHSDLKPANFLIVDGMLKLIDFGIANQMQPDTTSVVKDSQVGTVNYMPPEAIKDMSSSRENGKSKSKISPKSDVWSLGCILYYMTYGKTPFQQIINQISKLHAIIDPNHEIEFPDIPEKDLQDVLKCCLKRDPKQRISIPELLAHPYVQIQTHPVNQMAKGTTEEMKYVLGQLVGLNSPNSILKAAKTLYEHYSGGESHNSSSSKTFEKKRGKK

pIC50	Compound
≥ 9.00	O=C(Cc1ccc(F)cc1)Nc1ccc(-c2ccc3nc(Nc4ccc(C(=O)N5CCOCC5)cc4OCC(F)F)nn3c2)cc1 [Example 02.31, N-[4-(2-{[2-(2,2-difluoroethoxy)-4-(morpholin-4-ylcarbonyl)phenyl]amino}[,2]-triazolo[1,5-a]pyridin-6-yl)phenyl]-2-(4-fluorophenyl)acetamide]
≥ 9.00	COc1cc(C(=O)N2CCC(O)CC2)ccc1Nc1nc2ccc(-c3ccc(NC(=O)Cc4ccc(F)cc4)cc3)cn2n1 [Example 02.20, 2-(4-fluorophenyl)-N-{4-[2-({4-[(4-hydroxypiperidin-1-yl)carbonyl]-2-methoxyphenyl}amino)[,2]triazolo[1,5-a]pyridin-6-yl]phenyl}acetamide]
8.26	COc1cc(C2=NC(C)(C)CO2)ccc1Nc1nc2ccc(-c3ccc(C(=O)NCC4CC4)cc3)cn2n1 [Example 03.03, N-(cyclopropylmethyl)-4-(2-{[4-(4,4-dimethyl-4,5-dihydro-1,3-oxazol-2-yl)-2-methoxyphenyl]amino}[,2]-triazolo[1,5-a]pyridin-6-yl)benzamide]

Source: US9555022B2, “Substituted triazolopyridines” (Bayer Intellectual Property GmbH, priority 2010, dated 2017)
